The values below come from patent US10344060B2 (priority 2013, dated 2019).

Each structure is given as a SMILES string.

In test [1] the target is hNav1.4 (Homo sapiens, UniProt P35499). Briefly: cell-based. The conditions noted are these: ratio of PX tonic IC50 values. The class given is cell-based.
In test [2] the target is hNav1.5 (Homo sapiens, UniProt Q14524). Briefly: cell-based. The conditions noted are these: ratio of PX tonic IC50 values.
Chain of hNav1.5 (Q14524 whole entry): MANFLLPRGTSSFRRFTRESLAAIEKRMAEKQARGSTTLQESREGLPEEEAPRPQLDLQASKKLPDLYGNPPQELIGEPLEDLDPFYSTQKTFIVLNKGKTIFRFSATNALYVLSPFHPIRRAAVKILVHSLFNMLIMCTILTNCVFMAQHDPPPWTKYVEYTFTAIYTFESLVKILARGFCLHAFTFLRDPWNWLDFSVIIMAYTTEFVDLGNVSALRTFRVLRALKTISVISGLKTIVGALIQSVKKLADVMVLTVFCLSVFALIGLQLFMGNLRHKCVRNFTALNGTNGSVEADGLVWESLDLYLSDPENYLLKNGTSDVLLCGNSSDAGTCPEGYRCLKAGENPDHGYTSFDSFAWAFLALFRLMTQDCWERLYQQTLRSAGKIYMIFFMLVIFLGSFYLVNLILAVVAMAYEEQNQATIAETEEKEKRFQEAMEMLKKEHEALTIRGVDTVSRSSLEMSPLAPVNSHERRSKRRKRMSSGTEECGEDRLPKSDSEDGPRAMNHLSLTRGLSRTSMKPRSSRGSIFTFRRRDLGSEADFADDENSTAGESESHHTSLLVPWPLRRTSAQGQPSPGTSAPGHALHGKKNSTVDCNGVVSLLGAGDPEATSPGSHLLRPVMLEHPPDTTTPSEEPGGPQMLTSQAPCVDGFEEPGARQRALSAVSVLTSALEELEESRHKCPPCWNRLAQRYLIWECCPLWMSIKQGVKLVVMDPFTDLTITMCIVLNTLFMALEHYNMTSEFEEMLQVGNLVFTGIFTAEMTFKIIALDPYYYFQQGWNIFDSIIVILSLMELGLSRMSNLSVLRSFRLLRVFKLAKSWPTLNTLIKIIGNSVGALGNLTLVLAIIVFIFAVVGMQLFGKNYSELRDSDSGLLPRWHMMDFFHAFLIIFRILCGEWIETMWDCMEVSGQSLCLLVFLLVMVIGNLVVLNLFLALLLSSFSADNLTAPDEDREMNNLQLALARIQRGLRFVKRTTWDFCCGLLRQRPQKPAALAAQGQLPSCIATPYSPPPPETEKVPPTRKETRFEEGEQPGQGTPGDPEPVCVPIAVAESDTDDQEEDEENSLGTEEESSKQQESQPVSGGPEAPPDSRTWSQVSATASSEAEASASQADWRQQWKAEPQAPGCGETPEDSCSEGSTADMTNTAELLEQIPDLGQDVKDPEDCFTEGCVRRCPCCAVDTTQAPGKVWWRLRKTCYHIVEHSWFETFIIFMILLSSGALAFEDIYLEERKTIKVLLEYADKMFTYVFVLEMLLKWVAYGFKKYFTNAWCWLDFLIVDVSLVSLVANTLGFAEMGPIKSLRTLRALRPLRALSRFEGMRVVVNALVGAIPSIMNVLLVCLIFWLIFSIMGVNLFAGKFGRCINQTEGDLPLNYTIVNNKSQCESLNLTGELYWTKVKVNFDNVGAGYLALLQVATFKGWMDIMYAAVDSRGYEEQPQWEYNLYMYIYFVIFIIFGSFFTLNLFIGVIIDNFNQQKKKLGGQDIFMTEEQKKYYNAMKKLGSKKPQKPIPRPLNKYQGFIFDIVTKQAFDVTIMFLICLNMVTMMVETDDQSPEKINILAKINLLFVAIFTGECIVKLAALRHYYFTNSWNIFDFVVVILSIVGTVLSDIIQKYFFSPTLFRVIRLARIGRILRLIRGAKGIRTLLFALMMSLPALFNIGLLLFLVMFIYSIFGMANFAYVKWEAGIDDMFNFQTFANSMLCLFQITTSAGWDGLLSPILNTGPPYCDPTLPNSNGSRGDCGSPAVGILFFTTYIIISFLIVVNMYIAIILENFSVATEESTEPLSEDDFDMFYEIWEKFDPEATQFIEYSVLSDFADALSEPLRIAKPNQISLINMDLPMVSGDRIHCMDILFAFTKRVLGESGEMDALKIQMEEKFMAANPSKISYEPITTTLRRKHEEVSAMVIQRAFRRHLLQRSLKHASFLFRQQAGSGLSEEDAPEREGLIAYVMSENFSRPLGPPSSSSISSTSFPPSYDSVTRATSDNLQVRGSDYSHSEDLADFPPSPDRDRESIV

Chain of hNav1.4 (P35499 whole entry): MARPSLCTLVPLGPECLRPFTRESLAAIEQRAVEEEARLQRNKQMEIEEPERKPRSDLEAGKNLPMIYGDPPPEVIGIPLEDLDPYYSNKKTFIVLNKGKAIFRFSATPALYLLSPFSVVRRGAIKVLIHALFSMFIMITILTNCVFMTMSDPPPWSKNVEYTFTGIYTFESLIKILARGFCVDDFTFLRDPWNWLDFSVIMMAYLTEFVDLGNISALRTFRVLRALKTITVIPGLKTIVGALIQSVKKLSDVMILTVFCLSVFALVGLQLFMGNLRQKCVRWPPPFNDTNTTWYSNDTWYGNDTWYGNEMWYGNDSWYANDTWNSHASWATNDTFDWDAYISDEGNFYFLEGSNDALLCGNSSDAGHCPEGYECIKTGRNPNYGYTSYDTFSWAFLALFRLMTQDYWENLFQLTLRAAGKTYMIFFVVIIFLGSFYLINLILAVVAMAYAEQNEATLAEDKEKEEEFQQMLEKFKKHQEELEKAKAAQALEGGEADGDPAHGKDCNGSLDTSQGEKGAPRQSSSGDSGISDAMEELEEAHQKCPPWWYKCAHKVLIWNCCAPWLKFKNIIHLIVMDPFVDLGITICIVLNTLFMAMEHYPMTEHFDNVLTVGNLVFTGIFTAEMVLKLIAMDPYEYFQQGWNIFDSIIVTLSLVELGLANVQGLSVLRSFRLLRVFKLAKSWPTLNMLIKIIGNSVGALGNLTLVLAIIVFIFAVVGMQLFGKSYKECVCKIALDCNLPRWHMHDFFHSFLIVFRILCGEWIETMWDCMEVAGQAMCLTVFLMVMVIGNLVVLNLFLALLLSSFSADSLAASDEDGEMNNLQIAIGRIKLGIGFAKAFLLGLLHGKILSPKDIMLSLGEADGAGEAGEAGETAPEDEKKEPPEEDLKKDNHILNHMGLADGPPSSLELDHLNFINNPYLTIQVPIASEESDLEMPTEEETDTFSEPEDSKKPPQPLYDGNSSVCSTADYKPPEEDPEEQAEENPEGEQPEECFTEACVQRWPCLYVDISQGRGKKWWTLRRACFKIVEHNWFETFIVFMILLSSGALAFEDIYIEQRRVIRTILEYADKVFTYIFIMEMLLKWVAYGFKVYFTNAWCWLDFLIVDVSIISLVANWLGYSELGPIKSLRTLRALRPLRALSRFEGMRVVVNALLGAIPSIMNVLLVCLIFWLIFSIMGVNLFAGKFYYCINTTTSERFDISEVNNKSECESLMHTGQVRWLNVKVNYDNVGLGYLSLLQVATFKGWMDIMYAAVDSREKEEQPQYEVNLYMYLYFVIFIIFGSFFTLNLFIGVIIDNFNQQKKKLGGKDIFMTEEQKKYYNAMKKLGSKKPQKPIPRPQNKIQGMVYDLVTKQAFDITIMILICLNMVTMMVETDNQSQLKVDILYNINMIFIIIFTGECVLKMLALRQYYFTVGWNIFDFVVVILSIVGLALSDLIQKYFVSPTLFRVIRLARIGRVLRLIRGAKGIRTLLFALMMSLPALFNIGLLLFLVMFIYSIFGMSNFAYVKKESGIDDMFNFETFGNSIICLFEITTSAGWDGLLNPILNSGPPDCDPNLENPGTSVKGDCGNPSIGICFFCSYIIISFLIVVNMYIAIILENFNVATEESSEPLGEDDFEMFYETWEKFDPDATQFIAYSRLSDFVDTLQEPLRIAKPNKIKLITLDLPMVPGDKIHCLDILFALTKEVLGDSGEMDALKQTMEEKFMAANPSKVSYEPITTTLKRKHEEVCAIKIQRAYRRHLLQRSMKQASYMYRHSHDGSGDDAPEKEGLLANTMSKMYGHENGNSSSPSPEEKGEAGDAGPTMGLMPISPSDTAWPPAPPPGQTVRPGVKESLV

With `C#CC[C@H](N)C(=O)N[C@@H](Cc1ccc(O)cc1)C(=O)N[C@H]1CSSC[C@@H]2NC(=O)[C@@H]3CSSC[C@@H](C(=O)N[C@@H](CCCNC(=N)N)C(=O)N[C@@H](CCCCN)C(=O)N[C@H](C(=O)N[C@@H](Cc4c[nH]c5ccccc45)C(N)=O)[C@@H](C)CC)NC(=O)[C@H](Cc4c[nH]c5ccccc45)NC(=O)[C@H](CC(C)C)NC(=O)[C@H](CCCCN)NC(=O)[C@H](CSSC[C@H](NC(=O)[C@H]([C@@H](C)O)NC(=O)[C@H](Cc4c[nH]c5ccccc45)NC(=O)[C@H](CC(C)C)NC(=O)[C@H](Cc4c[nH]c5ccccc45)NC(=O)[C@H](CCCCN)NC(=O)[C@H](CCC(N)=O)NC1=O)C(=O)N[C@@H](CC(=O)O)C(=O)N[C@@H](CO)C(=O)N[C@@H](CCCCN)C(=O)N[C@@H](CCCNC(=N)N)C(=O)N[C@@H](C)C(=O)N3)NC(=O)[C@H](CCC(=O)O)NC(=O)[C@H](CC(C)C)NC(=O)CNC(=O)[C@H](CCC(=O)O)NC2=O` [compound 299], the Nav1.4/Nav1.7 in test [1] (Table 12) was 2069. Also, the Nav1.5/Nav1.7 in test [2] (Table 12) is 2332.

As for `C#CC[C@@H]1NC(=O)[C@@H]2CSSC[C@H](NC(=O)[C@@H](N)Cc3ccc(O)cc3)C(=O)N[C@@H](CCC(N)=O)C(=O)N[C@@H](CCCCN)C(=O)N[C@@H](Cc3c[nH]c4ccccc34)C(=O)N[C@@H](CCCC)C(=O)N[C@@H](Cc3c[nH]c4ccccc34)C(=O)N[C@@H]([C@@H](C)O)C(=O)N[C@H]3CSSC[C@H](NC(=O)[C@H](CCC(=O)O)NC(=O)[C@H](CC(C)C)NC(=O)CNC1=O)C(=O)N[C@@H](CCCCN)C(=O)N[C@@H](CC(C)C)C(=O)N[C@@H](Cc1c[nH]c4ccccc14)C(=O)N[C@H](C(=O)N[C@@H](CCCNC(=N)N)C(=O)N[C@@H](CCCCN)C(=O)N[C@@H](Cc1ccc(O)cc1)C(=O)N[C@H](C(N)=O)[C@@H](C)CC)CSSC[C@H](NC(=O)[C@H](C)NC(=O)[C@H](CCCNC(=N)N)NC(=O)[C@H](CCCCN)NC(=O)[C@H](CO)NC(=O)[C@H](CC(=O)O)NC3=O)C(=O)N2` [compound 317], the Nav1.4/Nav1.7 in test [1] (Table 12) turned out to be 161. In addition, the Nav1.5/Nav1.7 in test [2] (Table 12) is listed as 927.

On to `CCCC[C@@H]1NC(=O)[C@H](Cc2c[nH]c3ccccc23)NC(=O)[C@H](CCCCN)NC(=O)[C@H](CCC(N)=O)NC(=O)[C@@H](NC(=O)[C@@H](N)Cc2ccc(O)cc2)CSSC[C@@H]2NC(=O)[C@@H]3CSSC[C@@H](C(=O)N[C@@H](CCCNC(=N)N)C(=O)N[C@@H](CCCCN)C(=O)N[C@H](C(=O)N[C@@H](Cc4c[nH]c5ccccc45)C(N)=O)[C@@H](C)CC)NC(=O)[C@H](Cc4c[nH]c5ccccc45)NC(=O)[C@H](CC(C)C)NC(=O)[C@H](CCCCN)NC(=O)[C@H](CSSC[C@H](NC(=O)[C@H]([C@@H](C)O)NC(=O)[C@H](Cc4c[nH]c5ccccc45)NC1=O)C(=O)N[C@@H](CC(=O)O)C(=O)N[C@@H](CCCCN=[N+]=[N-])C(=O)N[C@@H](CCCCN)C(=O)N[C@@H](CCCNC(=N)N)C(=O)N[C@@H](C)C(=O)N3)NC(=O)[C@H](CCC(=O)O)NC(=O)[C@H](CC(C)C)NC(=O)CNC(=O)[C@H](CCC(=O)O)NC2=O` [compound 305], for which the Nav1.4/Nav1.7 in test [1] (Table 12) is 0. Besides, the Nav1.5/Nav1.7 in test [2] (Table 12) came out at 0.

For `C#CC[C@H](N)C(=O)N[C@H]1CSSC[C@@H]2NC(=O)[C@@H]3CSSC[C@@H](C(=O)N[C@@H](CCCNC(=N)N)C(=O)N[C@@H](CCCCN)C(=O)N[C@@H](CCC(=O)O)C(=O)N[C@H](C(N)=O)[C@@H](C)CC)NC(=O)[C@H](Cc4c[nH]c5ccccc45)NC(=O)[C@H](CC(C)C)NC(=O)[C@H](CCCCN)NC(=O)[C@H](CSSC[C@H](NC(=O)[C@H]([C@@H](C)O)NC(=O)[C@H](Cc4c[nH]c5ccccc45)NC(=O)[C@H](CCCC)NC(=O)[C@H](Cc4c[nH]c5ccccc45)NC(=O)[C@H](CCCCN)NC(=O)[C@H](CCC(N)=O)NC1=O)C(=O)N[C@@H](CC(=O)O)C(=O)N[C@@H](CO)C(=O)N[C@@H](CCCCN)C(=O)N[C@@H](CCCNC(=N)N)C(=O)N[C@@H](C)C(=O)N3)NC(=O)[C@H](CCCNC(=N)N)NC(=O)[C@H](CC(C)C)NC(=O)CNC(=O)[C@H](CCC(=O)O)NC2=O` [compound 329], the Nav1.4/Nav1.7 in test [1] (Table 12) stood at 555. Besides, the Nav1.5/Nav1.7 in test [2] (Table 12) is on record as 17167.

Consider `CCCC[C@@H]1NC(=O)[C@H](Cc2c[nH]c3ccccc23)NC(=O)[C@H](CCCCN)NC(=O)[C@H](CCC(N)=O)NC(=O)[C@@H](NC(=O)[C@H](Cc2ccc(O)cc2)NC(=O)[C@@H](N)CCN=[N+]=[N-])CSSC[C@@H]2NC(=O)[C@@H]3CSSC[C@@H](C(=O)N[C@@H](CCCNC(=N)N)C(=O)N[C@@H](CCCCN)C(=O)N[C@H](C(=O)N[C@@H](Cc4c[nH]c5ccccc45)C(N)=O)[C@@H](C)CC)NC(=O)[C@H](Cc4c[nH]c5ccccc45)NC(=O)[C@H](CC(C)C)NC(=O)[C@H](CCCCN)NC(=O)[C@H](CSSC[C@H](NC(=O)[C@H]([C@@H](C)O)NC(=O)[C@H](Cc4c[nH]c5ccccc45)NC1=O)C(=O)N[C@@H](CC(=O)O)C(=O)N[C@@H](CO)C(=O)N[C@@H](CCCCN)C(=O)N[C@@H](CCCNC(=N)N)C(=O)N[C@@H](C)C(=O)N3)NC(=O)[C@H](CCC(=O)O)NC(=O)[C@H](CC(C)C)NC(=O)CNC(=O)[C@H](CCC(=O)O)NC2=O` [compound 308], for which the Nav1.4/Nav1.7 in test [1] (Table 12) is reported as 1068. Also, in test [2] (Table 12), the Nav1.5/Nav1.7 was 3351.

Consider `C#CC[C@@H]1NC(=O)[C@H](CCCNC(=N)N)NC(=O)[C@H](CCCCN)NC(=O)[C@H](CO)NC(=O)[C@H](CC(=O)O)NC(=O)[C@@H]2CSSC[C@@H]3NC(=O)[C@H](CCC(=O)O)NC(=O)[C@H](CC(C)C)NC(=O)CNC(=O)[C@H](CCC(=O)O)NC(=O)[C@H](CSSC[C@H](NC(=O)[C@@H](N)Cc4ccc(O)cc4)C(=O)N[C@@H](CCC(N)=O)C(=O)N[C@@H](CCCCN)C(=O)N[C@@H](Cc4c[nH]c5ccccc45)C(=O)N[C@@H](CCCC)C(=O)N[C@@H](Cc4c[nH]c5ccccc45)C(=O)N[C@@H]([C@@H](C)O)C(=O)N2)NC(=O)[C@H](CSSC[C@@H](C(=O)N[C@@H](CCCNC(=N)N)C(=O)N[C@@H](CCCCN)C(=O)N[C@H](C(=O)N[C@H](C(N)=O)[C@@H](C)CC)[C@@H](C)CC)NC(=O)[C@H](Cc2c[nH]c4ccccc24)NC(=O)[C@H](CC(C)C)NC(=O)[C@H](CCCCN)NC3=O)NC1=O` [compound 345], for which the Nav1.4/Nav1.7 in test [1] (Table 12) worked out at 232. The Nav1.5/Nav1.7 in test [2] (Table 12) stood at 638.

In the case of `CCCC[C@@H]1NC(=O)[C@H](Cc2c[nH]c3ccccc23)NC(=O)[C@H](CCCCN)NC(=O)[C@H](CCC(N)=O)NC(=O)[C@@H](NC(=O)[C@H](Cc2ccc(O)cc2)NC(=O)[C@H](CC#N)NC(=O)[C@@H](N)CCCCN)CSSC[C@@H]2NC(=O)[C@@H]3CSSC[C@@H](C(=O)N[C@@H](CCCNC(=N)N)C(=O)N[C@@H](CCCCN)C(=O)N[C@@H](CCC(=O)O)C(=O)N[C@H](C(N)=O)[C@@H](C)CC)NC(=O)[C@H](Cc4c[nH]c5ccccc45)NC(=O)[C@H](CC(C)C)NC(=O)[C@H](CCCCN)NC(=O)[C@H](CSSC[C@H](NC(=O)[C@H]([C@@H](C)O)NC(=O)[C@H](Cc4c[nH]c5ccccc45)NC1=O)C(=O)N[C@@H](CC(=O)O)C(=O)N[C@@H](CO)C(=O)N[C@@H](CCCCN)C(=O)N[C@@H](CCCNC(=N)N)C(=O)N[C@@H](CCCCNC(=O)[C@@H](N)Cc1cn(CCOCCOCCOCCOCCOCCOCCOCCOCCOCCOCCN)nn1)C(=O)N3)NC(=O)[C@H](CCCNC(=N)N)NC(=O)[C@H](CC(C)C)NC(=O)CNC(=O)[C@H](CCC(=O)O)NC2=O` [compound 891], the Nav1.4/Nav1.7 in test [1] (Table 13) is given as 66. Moreover, in test [2] (Table 13), the Nav1.5/Nav1.7 is listed as 655.

Regarding `C#CC[C@@H]1NC(=O)[C@@H]2CSSC[C@H](NC(=O)[C@@H](N)Cc3ccc(O)cc3)C(=O)N[C@@H](CCC(N)=O)C(=O)N[C@@H](CCCCN)C(=O)N[C@@H](Cc3c[nH]c4ccccc34)C(=O)N[C@@H](CCCC)C(=O)N[C@@H](Cc3c[nH]c4ccccc34)C(=O)N[C@@H]([C@@H](C)O)C(=O)N[C@H]3CSSC[C@H](NC(=O)[C@H](CCC(=O)O)NC(=O)[C@H](CC(C)C)NC(=O)CNC1=O)C(=O)N[C@@H](CCCCN)C(=O)N[C@@H](CC(C)C)C(=O)N[C@@H](Cc1c[nH]c4ccccc14)C(=O)N[C@H](C(=O)N[C@@H](CCCNC(=N)N)C(=O)N[C@@H](CCCCN)C(=O)N[C@H](C(=O)N[C@H](C(N)=O)[C@@H](C)CC)[C@@H](C)CC)CSSC[C@H](NC(=O)[C@H](C)NC(=O)[C@H](CCCNC(=N)N)NC(=O)[C@H](CCCCN)NC(=O)[C@H](CO)NC(=O)[C@H](CC(=O)O)NC3=O)C(=O)N2` [compound 346], in test [1] (Table 12), the Nav1.4/Nav1.7 is listed as 29. Moreover, the Nav1.5/Nav1.7 in test [2] (Table 12) was determined as 102.

Turning to `C#CC[C@H](N)C(=O)N[C@@H](Cc1ccc(O)cc1)C(=O)N[C@H]1CSSC[C@@H]2NC(=O)[C@@H]3CSSC[C@@H](C(=O)N[C@@H](CCCNC(=N)N)C(=O)N[C@@H](CCCCN)C(=O)N[C@H](C(=O)N[C@@H](Cc4c[nH]c5ccccc45)C(N)=O)[C@@H](C)CC)NC(=O)[C@H](Cc4c[nH]c5ccccc45)NC(=O)[C@H](CC(C)C)NC(=O)[C@H](CCCCN)NC(=O)[C@H](CSSC[C@H](NC(=O)[C@H]([C@@H](C)O)NC(=O)[C@H](Cc4c[nH]c5ccccc45)NC(=O)[C@H](Cc4ccccc4)NC(=O)[C@H](Cc4c[nH]c5ccccc45)NC(=O)[C@H](CCCCN)NC(=O)[C@H](CCC(N)=O)NC1=O)C(=O)N[C@@H](CC(=O)O)C(=O)N[C@@H](CO)C(=O)N[C@@H](CCCCN)C(=O)N[C@@H](CCCNC(=N)N)C(=O)N[C@@H](C)C(=O)N3)NC(=O)[C@H](CCC(=O)O)NC(=O)[C@H](CC(C)C)NC(=O)CNC(=O)[C@H](CCC(=O)O)NC2=O` [compound 298], the Nav1.4/Nav1.7 in test [1] (Table 12) is on record as 44. Moreover, in test [2] (Table 12), the Nav1.5/Nav1.7 amounted to 52.
